Experimental data from ChEMBL document CHEMBL1240432, “Synthesis and preliminary bioactivity assays of 3,4-dichloro-5-(omega-hydroxyalkylamino)-2(5H)-furanones” (Eur J Med Chem, 2010).

Columns and labels:
Trypanosoma cruzi = assay: Antiprotozoal activity against Trypanosoma cruzi Tulahuen C2C4 infected in rat skeletal myoblast at 4.8 ug/ml after 48 hrs; format: functional; settings: Tulahuen C2C4, 48 h
[1] = system: Trypanosoma brucei rhodesiense; assay: Antiprotozoal activity against Trypanosoma brucei rhodesiense STIB900 at 4.8 ug/mL by microplate alamar blue assay; format: functional
[2] = system: Mycobacterium tuberculosis; assay: Antitubercular activity against Mycobacterium tuberculosis H37Rv by microplate alamar blue assay; format: functional, organism-based
Plasmodium falciparum = assay: Antiprotozoal activity against Plasmodium falciparum K1 infected in human erythrocytes at 4.8 ug/m after 72 hrs by [3H]hypoxanthine incorporation; format: functional
Leishmania donovani = assay: Antiprotozoal activity against Leishmania donovani MHOM/ET/67/L82 at 4.8 ug/m after 72 hrs by fluorimetry; format: functional

O=C(Cn1ccnc1[N+](=O)[O-])NCc1ccccc1 [BENZNIDAZOLE]
inhibition at 4.8 µg/mL (Trypanosoma cruzi): 89.6%

Nc1nc(N)nc(Nc2ccc([As]3SCC(CO)S3)cc2)n1 (stereo unspecified) [MELARSOPROL]
inhibition at 4.8 µg/mL [1]: 98.2%

O=C1OC(NCC(O)CO)C(Cl)=C1Cl (stereo unspecified)
IC50 [2]: > 100 µg/mL
IC90 [2]: > 100 µg/mL

C[C@@H]1CC[C@H]2[C@@H](C)C(=O)O[C@@H]3O[C@@]4(C)CC[C@@H]1[C@]32OO4 [ARTEMISININ]
inhibition (INH) (Plasmodium falciparum): 100%

CCCCCCCCCCCCCCCCOP(=O)([O-])OCC[N+](C)(C)C [MILTEFOSINE]
inhibition (INH) (Leishmania donovani): 92.5%
